Experimental data from patent US20260137662A1, “CD11B AGONISTS FOR TREATMENT OF AUTOIMMUNE DISEASE” (Rush University Medical Center, priority 2022, published 2026).

Experiments:
[1] = test system: BMDMs from C57BL/6 wild type mice (WT); assay: Biomarker secretion from IMQ-treated bone marrow derived macrophages of wild type mice; assay type: cell-based; settings: WT cells, IMQ (20 ug/mL) and LA1 (20 uM) co-treatment, 4 hours
Experimental: (§1) FIG. 7A illustrates levels of biomarker IL-6 secretion in bone marrow derived macrophages (BMDMs) from C57BL/6 wild type (WT) mice, mice with global deletion of CD11b (KO), or C57BL/6 mice expressing CD11b with a point mutation (KI), the macrophages treated for 4 hours with vehicle DMSO (UT), LA1 (20 uM), IMQ (20 ug/mL), or IMQ and LA1 co-treatment. Bars show mean with SD (N=3) (*P<0.05, **P<0.01, ***P<0.001, ****P<0.0001).
(§2) FIG. 7B illustrates levels of biomarker IL-1b secretion in bone marrow derived macrophages (BMDMs) from C57BL/6 wild type (WT) mice, mice with global deletion of CD11b (KO), or C57BL/6 mice expressing CD11b with a point mutation (KI), the macrophages treated for 4 hours with vehicle DMSO (UT), LA1 (20 uM), IMQ (20 ug/mL), or IMQ and LA1 co-treatment. Bars show mean with SD (N=3) (*P<0.05, **P<0.01, ***P<0.001, ****P<0.0001).
(§3) FIG. 7C illustrates levels of biomarker suPAR secretion in bone marrow derived macrophages (BMDMs) from C57BL/6 wild type (WT) mice, mice with global deletion of CD11b (KO), or C57BL/6 mice expressing CD11b with a point mutation (KI), the macrophages treated for 4 hours with vehicle DMSO (UT), LA1 (20 uM), IMQ (20 ug/mL), or IMQ and LA1 co-treatment. Bars show mean with SD (N=3) (*P<0.05, **P<0.01, ***P<0.001, ****P<0.0001).
(§4) FIG. 7D illustrates levels of biomarker IFNb secretion in bone marrow derived macrophages (BMDMs) from C57BL/6 wild type (WT) mice, mice with global deletion of CD11b (KO), or C57BL/6 mice expressing CD11b with a point mutation (KI), the macrophages treated for 4 hours with vehicle DMSO (UT), LA1 (20 uM), IMQ (20 ug/mL), or IMQ and LA1 co-treatment. Bars show mean with SD (N=3) (*P<0.05, **P<0.01, ***P<0.001, ****P<0.0001).
(§5) Bone marrow derived macrophages (BMDMs) from C57BL/6 wild type mice (WT), mice with global deletion of CD11b (KO), and C57BL/6 mice expressing CD11b with a point mutation (KI), as described previously (Martinez et al., 2020) were used to evaluate the effect of pharmacologic activation of CD11b by LA1 or genetic activation of CD11b on TLR-pathway dependent biomarkers. BMDMs from WT, KO, and KI mice were left untreated, treated with LA1, treated with IMQ, or co-treated with LA1 and IMQ and levels of biomarkers IL-1b, suPAR, IL-6 and IFN-b were measured 4 hours after treatment.

[2] = test system: TLR-stimulation dependent pro-inflammatory pathways; assay: suPAR and TNFa secretion from myeloid (RAW) cells stimulated with TLR-stimulants or PMA (ELISA); assay type: cell-based, murine; settings: co-treatment TLR-stimulant (LPS, PMA, Pam2CSK4, Pam3CSK4, IMQ) and LA1 (20 uM), 4 hours
Experimental: FIG. 2A illustrates the levels of biomarker suPAR secretion from RAW cells after treatment with LPS (50ng/ml), PMA (0.1 ug/mL), Pam2CSK4 (0.1 ug/mL), Pam3CSK4 (0.1 ug/mL), Imiquimod (IMQ) (20 ug/mL), LA1 (20 uM), or co-treatments. Bars show mean with SD (N=3) (*P<0.05, **P<0.01, ***P<0.001, ****P<0.0001).
FIG. 2B illustrates the levels of biomarker (A) suPAR and (B) TNF-a secretion from RAW cells after treatment with LPS (50ng/ml), PMA (0.1 ug/mL), Pam2CSK4 (0.1 ug/mL), Pam3CSK4 (0.1 ug/mL), Imiquimod (IMQ) (20 ug/mL), LA1 (20 uM), or co-treatments. Bars show mean with SD (N=3) (*P<0.05, **P<0.01, ***P<0.001, ****P<0.0001).
The effect of LA1 on TLR-stimulation dependent pro-inflammatory pathways was studied by stimulating myeloid cells with different TLR-stimulants (lipopolysaccharide (LPS), Pam2CSK 4, imiquimod (IMQ)) or with phorbol 12-myristate 13-acetate (PMA) and co-treating with LA1. The levels of suPAR (pg/mL) and TNFa (pg/mL) in cell supernatant were measured 4 hours after treatment using ELISA. […] Relative gene expression was also assessed in myeloid cells treated with Poly(I:C), a known toll-like receptor (TLR) agonist, and co-treated with LA1.

[3] = test system: BMDMs from mice with global deletion of CD11b (KO); assay: Biomarker secretion from IMQ-treated bone marrow derived macrophages of CD11b KO mice; assay type: cell-based; settings: CD11b KO cells, IMQ (20 ug/mL) and LA1 (20 uM) co-treatment, 4 hours
Experimental: as §1, §2, §3, §4, §5

[4] = test system: RAW 264.7 murine macrophage cell line; assay: suPAR and TNFa secretion from RAW 264.7 cells treated with LN patient sera (ELISA); assay type: cell-based; settings: co-treatment LN sera (0.5%) and LA1 (20 uM), 4 hours, vs LN sera alone
Experimental: FIG. 1A illustrates levels of biomarker suPAR secretion from RAW 264.7 cells after 4 hours of treatment with cell culture medium (UT), LA1 (20 uM), LN patient sera (0.5%) in culture medium ([…]), or co-treatment with LN sera (0.5%) and LA1 (20 uM). […] FIG. 1B illustrates levels of biomarker TNFa secretion from RAW 264.7 cells after 4 hours of treatment with cell culture medium (UT), LA1 (20 uM), LN patient sera (0.5%) in culture medium ([…]), or co-treatment with LN sera (0.5%) and LA1 (20 uM). […] Myeloid cells from RAW 264.7 murine macrophage cell line were used to measure the concentration of pro-inflammatory biomarkers, soluble uPAR (suPAR) and TNFa, in the presence of lupus nephritis (LN) sera and LA1. The levels of pro-inflammatory biomarkers were measured in the supernatant of untreated cells, cells treated with LA1, cells treated with sera from patients with lupus nephritis (LN), and cells co-treated with LN sera and LA1. The concentrations of various pro-inflammatory biomarkers in cell supernatant were measured 4 hours after treatment using ELISA.

O=C(O)c1ccc(-c2ccc(/C=C3\SC(=S)N(Cc4ccccc4)C3=O)o2)cc1 [LA1, (Z)-4-(5-((3-benzyl-4-oxo-2-thioxothiazolidin-5-ylidene)methyl)furan-2-yl)benzoic acid]
no effect: level of IFN-b in cell supernatant [3] | level of IL-1b in cell supernatant [3] | level of IL-6 in cell supernatant [3] | level of suPAR in cell supernatant [3]
significantly suppressed: level of IFN-b in cell supernatant [1] | level of IL-1b in cell supernatant [1] | level of IL-6 in cell supernatant [1] | level of suPAR in cell supernatant [1]
significantly reduced: levels of biomarker TNFa in cell supernatant [2] | levels of biomarker suPAR in cell supernatant [2] | level of TNFa in cell supernatant [4] | level of soluble uPAR (suPAR) in cell supernatant [4]
